Article PMC3222680 (PLoS ONE, 2011)

Assays:
Format in all cases: cell-based
αWT β-αK24′A GlyR = molecular target: T1, αWT β-αK24′A GlyR (Homo sapiens, UniProt P23415+P48167, A275I/A296P/F268Y/G272Q/K304A/L286I/M270L/M271I/P292M/P300G/S295A/T277S/V266M/V273M/V282I)
T1 construct: The α R218-Q219 and β R242-Q243 are also the joining sites for chimeras constructed between the ECD and TMD; expressed in transfected cells; host or cells: HEK293 (ATCC)
T1 sequence (P23415 29-449 isoform P23415-2): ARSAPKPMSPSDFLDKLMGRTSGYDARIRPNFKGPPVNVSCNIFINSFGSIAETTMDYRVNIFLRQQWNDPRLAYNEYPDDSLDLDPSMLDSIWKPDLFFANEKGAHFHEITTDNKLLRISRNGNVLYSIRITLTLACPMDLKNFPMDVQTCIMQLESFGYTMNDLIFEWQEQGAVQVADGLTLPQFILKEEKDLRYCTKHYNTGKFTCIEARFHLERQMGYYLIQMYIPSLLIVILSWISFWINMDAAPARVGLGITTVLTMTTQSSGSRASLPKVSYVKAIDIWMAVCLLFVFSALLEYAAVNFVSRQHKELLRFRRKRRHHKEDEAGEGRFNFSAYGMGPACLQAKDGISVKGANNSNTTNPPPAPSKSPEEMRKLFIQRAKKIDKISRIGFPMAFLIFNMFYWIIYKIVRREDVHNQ
T1 sequence (P48167+P23415 with tags, fused parts or gaps P48167:V266M/P48167:F268Y/P48167:M270L/P48167:M271I/P48167:G272Q/P48167:V273M/P48167:A275I/P48167:T277S/P48167:V282I/P48167:L286I/P48167:P292M/P48167:S295A/P48167:A296P/P48167:P300G/P23415:K304A): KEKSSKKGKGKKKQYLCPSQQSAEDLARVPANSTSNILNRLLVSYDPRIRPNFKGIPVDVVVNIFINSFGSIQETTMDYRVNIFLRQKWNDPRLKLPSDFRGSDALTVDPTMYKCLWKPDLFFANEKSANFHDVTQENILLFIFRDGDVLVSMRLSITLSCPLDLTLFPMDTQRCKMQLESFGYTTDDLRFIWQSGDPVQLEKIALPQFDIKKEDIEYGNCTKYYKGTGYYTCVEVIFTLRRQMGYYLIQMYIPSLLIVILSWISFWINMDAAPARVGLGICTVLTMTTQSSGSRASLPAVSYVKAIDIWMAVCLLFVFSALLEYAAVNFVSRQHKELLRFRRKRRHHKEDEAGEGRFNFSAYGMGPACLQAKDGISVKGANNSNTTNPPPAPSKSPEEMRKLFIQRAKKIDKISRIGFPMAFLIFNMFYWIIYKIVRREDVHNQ
Experimental: (§1) The human GlyR α1 and β subunit cDNAs were subcloned into the pcDNA3.1zeo+ (Invitrogen) or pGEMHE [44] plasmid vectors for expression in HEK293 cells or Xenopus oocytes, respectively. Site-directed mutagenesis and chimera construction were performed using the QuickChange (Stratagene, La Jolla, CA, USA) mutagenesis and multiple-template-based sequential PCR protocols, respectively.
(§2) For the β-α chimeras used for determining the effect of hyperekplexia-mimicking mutations on α1 β GlyR channel function, the Thr at the M2 6′ position was replaced by a Cys. […] Through such a modification, picrotoxin resistance was used to distinguish the heteromeric α1 β-α GlyR from the homomeric α1 GlyR when the α1 and β-α subunits were co-expressed.
(§3) The effects of the hyperekplexia-mimicking mutations, K24′A, V25′A and Y27′A, were examined on GlyRs expressed in HEK293 cells (ATCC). Details of the HEK293 cell culture, GlyR expression and electrophysiological recording of the HEK293 cells are described elsewhere. Briefly, HEK293 cells were maintained in DMEM supplemented with 10% fetal bovine serum. Cells were transfected using a calcium phosphate precipitation protocol. When co-transfecting the α1 together with the β or any other chimera subunits, their respective cDNAs were combined in a ratio of 1∶10. In addition, the pEGFP-N1 (Clontech) was co-transfected to facilitate identifying the transfected cells. […] Cells were treated with external Ringer's solution and internal CsCl solution [30]. Cells were voltage-clamped at −40 mV. When the heteromeric GlyRs were expressed, the picrotoxin sensitivity was tested to confirm that the majority of receptors are heteromers, [30].
(§4) Results are expressed as mean±standard error of the mean of three or more independent experiments. […] Statistical significance was determined using the Student's t-test.

αWT β-αV25′A GlyR = molecular target: T2, αWT β-αV25′A GlyR (Homo sapiens, UniProt P23415+P48167, A275I/A296P/F268Y/G272Q/L286I/M270L/M271I/P292M/P300G/S295A/T277S/V266M/V273M/V282I/V305A)
T2 construct: The α R218-Q219 and β R242-Q243 are also the joining sites for chimeras constructed between the ECD and TMD; expressed in transfected cells; host or cells: HEK293 (ATCC)
T2 sequence (P23415 29-449 isoform P23415-2): T1 sequence (P23415 29-449 isoform P23415-2)
T2 sequence (P48167+P23415 with tags, fused parts or gaps P48167:V266M/P48167:F268Y/P48167:M270L/P48167:M271I/P48167:G272Q/P48167:V273M/P48167:A275I/P48167:T277S/P48167:V282I/P48167:L286I/P48167:P292M/P48167:S295A/P48167:A296P/P48167:P300G/P23415:V305A): T1 sequence (P48167+P23415 with tags, fused parts or gaps P48167:V266M/P48167:F268Y/P48167:M270L/P48167:M271I/P48167:G272Q/P48167:V273M/P48167:A275I/P48167:T277S/P48167:V282I/P48167:L286I/P48167:P292M/P48167:S295A/P48167:A296P/P48167:P300G/P23415:K304A) with A300K, V301A
Experimental: as §1, §2, §3, §4

αWT β-αY27′A GlyR = molecular target: T3, αWT β-αY27′A GlyR (Homo sapiens, UniProt P23415+P48167, A275I/A296P/F268Y/G272Q/L286I/M270L/M271I/P292M/P300G/S295A/T277S/V266M/V273M/V282I/Y307A)
T3 construct: The α R218-Q219 and β R242-Q243 are also the joining sites for chimeras constructed between the ECD and TMD; expressed in transfected cells; host or cells: HEK293 cells (ATCC), pcDNA3.1zeo+
T3 sequence (P23415 29-449 isoform P23415-2): T1 sequence (P23415 29-449 isoform P23415-2)
T3 sequence (P48167+P23415 with tags, fused parts or gaps P48167:V266M/P48167:F268Y/P48167:M270L/P48167:M271I/P48167:G272Q/P48167:V273M/P48167:A275I/P48167:T277S/P48167:V282I/P48167:L286I/P48167:P292M/P48167:S295A/P48167:A296P/P48167:P300G/P23415:Y307A): T1 sequence (P48167+P23415 with tags, fused parts or gaps P48167:V266M/P48167:F268Y/P48167:M270L/P48167:M271I/P48167:G272Q/P48167:V273M/P48167:A275I/P48167:T277S/P48167:V282I/P48167:L286I/P48167:P292M/P48167:S295A/P48167:A296P/P48167:P300G/P23415:K304A) with A300K, Y303A
Experimental: as §1, §2, §3, §4

[1] = αWT β-αK24′A, HEK293, with glycine at EC50 of α1 homomer
[2] = αWT β-αV25′A, HEK293, with glycine at EC50 of α1 homomer
[3] = αWT β-αY27′A, HEK293, with glycine at EC50 of α1 homomer

Molecule | Imax (αWT β-αK24′A GlyR) [nA] | nH (αWT β-αK24′A GlyR) | Imax (αWT β-αV25′A GlyR) [nA] | nH (αWT β-αV25′A GlyR) | Imax (αWT β-αY27′A GlyR) [nA] | nH (αWT β-αY27′A GlyR) | 10uM PTX inhibition (%) (αWT β-αK24′A GlyR; [1]) | 100uM PTX inhibition (%) (αWT β-αK24′A GlyR; [1]) | 10uM PTX inhibition (%) (αWT β-αV25′A GlyR; [2]) | 100uM PTX inhibition (%) (αWT β-αV25′A GlyR; [2]) | 10uM PTX inhibition (%) (αWT β-αY27′A GlyR; [3]) | 100uM PTX inhibition (%) (αWT β-αY27′A GlyR; [3])
NCC(=O)O [glycine] | 5.9±1.7 | 1.5±0.3 | 11.0±1.1 | 2.2±0.3 | 6.5±1.6 | 2.1±0.6 | – | – | – | – | – | –
picrotoxin [PTX] | – | – | – | – | – | – | 12.0±3.0 | 31±3 | 8.8±1.6 | 31±1 | 22±7 | 48±4
